Data from patent US20260242759A1, “GQ/11 Protein Peptidomimetics” (Vrije Universiteit Brussel, priority 2022, published 2026).
Positions of bridges follow the written chain, without caps; N, C: chain ends. Non-standard residues stand in square brackets, D forms with d. Residues, ends and D or L forms follow the SMILES beside them. Triazole bridges read from a SMILES are 1,4-linked. Lys(N3) = [N-]=[N+]=NCCCC[C@H](N)C(=O)O; Cha = N[C@@H](CC1CCCCC1)C(=O)O; Pra = C#CC[C@H](N)C(=O)O

Assays:
[1] = target: T1, human ghrelin receptor (GHSR) (Homo sapiens, UniProt Q92847, C146S/C304S); assay: Bimane fluorescence assay on purified ghrelin receptor in nanodiscs; type: biochemical; conditions: bimane labeled GHSR, in presence of JMV1843
T1 construct: integrin α5 fragment (N); polyhistidine tag (C); made in house; host or cells: E. coli BL21(DE3)
T1 sequence (Q92847 whole entry C146S/C304S, the tested form may be a part): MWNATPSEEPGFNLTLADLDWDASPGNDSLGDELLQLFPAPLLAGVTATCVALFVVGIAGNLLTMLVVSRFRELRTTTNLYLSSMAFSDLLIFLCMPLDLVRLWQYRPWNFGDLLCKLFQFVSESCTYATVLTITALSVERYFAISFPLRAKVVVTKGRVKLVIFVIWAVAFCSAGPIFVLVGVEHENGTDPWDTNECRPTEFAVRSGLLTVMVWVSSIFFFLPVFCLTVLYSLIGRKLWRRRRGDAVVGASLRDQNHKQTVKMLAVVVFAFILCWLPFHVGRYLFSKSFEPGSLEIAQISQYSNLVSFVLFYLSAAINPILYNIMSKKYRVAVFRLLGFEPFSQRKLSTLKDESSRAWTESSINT
Text: Another assay that can be used to analyse conformational changes associated with GPCR activation and/or to identify G protein peptidomimetics that are capable of stabilizing a GPCR in an active conformational state is the bimane fluorescence assay or bimane assay. This assay works through labelling of a cysteine residue in the lower part of the TM6 of a GPCR with a bimane-fluorophore (monobromobimane (MB)). Binding of an agonist to the GPCR causes a conformational change and outward movement of TM6 that places bimane in a more solved-exposed position, which will alter its maximum emission wavelength. In particular, increasing concentrations of agonist result in a concentration-dependent red-shift of the maximum emission wavelength (λmax) of the bimane-fluorophore probe. In the presence of a G protein or an active state stabilizing G protein peptidomimetic λmax may increase further. For example, a bimane labelled ghrelin receptor (such as a cysmin mutant (i.e. mutant with minimal cysteines) of human ghrelin receptor (also referred to herein as growth hormone secretagogue receptor (GHSR) (e.g. the mutant as described in Damian et al. (2021) wherein monobromobimane (MB) fluorescent probe is attached to Cys^255) and ghrelin receptor agonist JMV1843 may be used.
The bimane fluorescence assays on the ghrelin receptor were performed as described in Damian et al. (2021. Nat. Commun. 12:1-15). Briefly, E. coli bacteria (BL21(DE3)) were transformed with a vector encoding the human ghrelin receptor with an integrin α5 fragment at the N-terminus and a polyhistidine tag at the C-terminus. The receptors were then purified and reconstituted into lipidated nanodiscs. The monobromobimane labeling was performed by incubating the receptors, with a unique reactive cysteine at position 255, during 16 h in the dark at 4° C. and in the presence of 0.1 mM tris(2-carboxyethyl)phosphine (TCEO). The reaction was terminated with 5 mM L-cysteine and unreacted monobromobimane was removed using a Zeba™ Spin desalting column.
For the fluorescence assay, the labeled receptor was incubated during 2 h at 20° C. (0.2 μM final concentration), in the absence or presence of the full agonist JMV1843 (20 μM) and in the absence or presence of either the peptidomimetics at varying molar ratios or the purified Gαqβ1γ2 heterotrimer, at a 1:5 receptor-to-G protein molar ratio. Afterwards, the fluorescence experiments were performed on a Horiba Fluoromax-4 TCSP spectrofluorimeter. For each scan, the excitation wavelength (λexc) was set at 380 nm and emission was collected between 440 nm and 520 nm.
The bimane assay is used on GPCRs to detect conformational changes associated with receptor activation. This assay functions through the labelling of a cysteine, which is one of the least frequently occurring amino acids in proteins. Additionally, the majority of the extracellular cysteines form disulfide bonds, which, together with the transmembrane cysteines, are inert to thiol-reactive reagents. Additionally, some of the intracellular cysteines in the C-terminal tail may carry post-translational modifications which reduces the number of reactive cysteines in the receptor (Tian et al. 2017. Chem. Rev. 117:186-245). For GHSR, the remaining reactive cysteine residues C146 (ICL2) and C304 (extracellular end of TM7) were replaced by serines (cysmin mutant, i.e. mutant with minimal cysteines), to allow the monobromobimane (MB) fluorescent probe to be specifically attached to Cys255 in the lower part of TM6 (FIG. 5a) (Damian et al. 2021). In this assay, bimane is chosen because of its small size and sensitivity to the polarity of its environment (Yao et al. 2006. Nat Chem. Biol. 2:417-422). Binding of a ligand to the receptor, causes a conformational change and outward movement of TM6 that places bimane in a more solvent-exposed position, which alters its maximum emission wavelength. […]

[2] = Solubility in aqueous buffer; conditions: aqueous buffer for RLA
HEK293 1C8 cells = assay: MTT cytotoxicity assay; type: cell-based, human; conditions: varying concentrations up to 40 μM, 3 h 45 min
Description: Cells were washed two times with PBS and incubated with 3-(4,5-dimethylthiazol-2-yl)-2,5-diphenyltetrazolium bromide (MTT) during 3 h, at 37° C. Afterwards, cells were washed once with PBS and then incubated for 10 min with DMSO. Plates were analysed with a Tecan Spark 10 M microplate reader.
An MTT assay was used to assess the cytotoxicity of the non-fluorescent Gq/11 peptidomimetics of Example 5. An MTT assay is a colorimetric test that evaluates the cell metabolic activity and reflects the cell viability.

| Compound | conformational change in the receptor [1] | solubility in aqueous buffer [2] | cytotoxicity / viability (HEK293 1C8 cells) |
| --- | --- | --- | --- |
| Ac-FNDCKDIILQMNLREYNLV-OH [SBL-GQ-07] | not able to induce a conformational change | not soluble | – |
| CC[C@H](C)[C@H](NC(=O)[C@@H]1CCCCn2cc(nn2)C[C@H](NC(=O)[C@H](C)NC(=O)[C@H](Cc2ccccc2)NC(=O)[C@H](CCCCN)NC(=O)[C@H](CCCCN)NC(=O)[C@@H](N)CCCCN)C(=O)N[C@@H](C(C)C)C(=O)N[C@@H](CCCCN)C(=O)N[C@@H](CC(=O)O)C(=O)N1)C(=O)N[C@@H](CC(C)C)C(=O)N[C@@H](CCC(N)=O)C(=O)N[C@@H](CC(C)C)C(=O)N[C@@H](CC(N)=O)C(=O)N[C@@H](CC(C)C)C(=O)N[C@@H](CCCCN)C(=O)N[C@@H](CCC(=O)O)C(=O)N[C@@H](Cc1ccc(O)cc1)C(=O)N[C@@H](CC(N)=O)C(=O)N[C@@H](CC(C)C)C(=O)N[C@H](C(=O)O)C(C)C [SBL-GQ-13] (H-KKKFA[Pra]VKD[Lys(N3)]ILQLNLKEYNLV-OH; triazole 6-10) | – | – | No cytotoxicity |
| CC[C@H](C)[C@H](NC(=O)[C@H](CC(=O)O)NC(=O)[C@H](CCCCN)NC(=O)[C@H](CS)NC(=O)[C@H](CC(=O)O)NC(=O)[C@H](CC(N)=O)NC(=O)[C@H](Cc1ccccc1)NC(C)=O)C(=O)N[C@H](C(=O)N[C@@H](CC(C)C)C(=O)N[C@@H](CCC(N)=O)C(=O)N[C@@H](CCSC)C(=O)N[C@@H](CC(N)=O)C(=O)N[C@@H](CC(C)C)C(=O)N[C@@H](CCCNC(=N)N)C(=O)N[C@@H](CCC(=O)O)C(=O)N[C@@H](Cc1ccc(O)cc1)C(=O)N[C@@H](CC(N)=O)C(=O)N[C@@H](CC1CCCCC1)C(=O)N[C@H](C(=O)O)C(C)C)[C@@H](C)CC [SBL-GQ-09] (Ac-FNDCKDIILQMNLREYN[Cha]V-OH) | not able to induce a conformational change | not soluble | – |
| CC[C@H](C)[C@H](NC(=O)[C@@H]1CCCCn2cc(nn2)C[C@H](NC(=O)[C@H](C)NC(=O)[C@H](Cc2ccccc2)NC(=O)[C@H](CCCNC(=N)N)NC(=O)[C@H](CCCNC(=N)N)NC(=O)[C@H](CCCNC(=N)N)NC(=O)[C@@H](N)CCCNC(=N)N)C(=O)N[C@@H](C(C)C)C(=O)N[C@@H](CCCCN)C(=O)N[C@@H](CC(=O)O)C(=O)N1)C(=O)N[C@@H](CC(C)C)C(=O)N[C@@H](CCC(N)=O)C(=O)N[C@@H](CC(C)C)C(=O)N[C@@H](CC(N)=O)C(=O)N[C@@H](CC(C)C)C(=O)N[C@@H](CCCCN)C(=O)N[C@@H](CCC(=O)O)C(=O)N[C@@H](Cc1ccc(O)cc1)C(=O)N[C@@H](CC(N)=O)C(=O)N[C@@H](CC(C)C)C(=O)N[C@H](C(=O)O)C(C)C [SBL-GQ-14] (H-RRRRFA[Pra]VKD[Lys(N3)]ILQLNLKEYNLV-OH; triazole 7-11) | – | – | only a slight decrease in viability |
